Assay results reported in US20240216289A1, “LIPIDOID NANOPARTICLES FOR THE TREATMENT OF DISEASES AND DISORDERS” (Trustees of Tufts College, priority 2021, published 2024).
“Also recorded” adds a separate entry of the source.

Tests used:
inguinal lymph nodes = assay: Luc mRNA expression in inguinal lymph nodes after subcutaneous tail-base injection of LNP/mLuc (IVIS); format: in vivo, Balb/c mice; details: subcutaneous at tail base, 6 h, bioluminescence
liver [1] = assay: Luc mRNA expression in liver after subcutaneous tail-base injection of LNP/mLuc (IVIS); format: in vivo, Balb/c mice; details: subcutaneous at tail base, 6 h, bioluminescence
[2] = system: macrophages and dendritic cells (DCs) in inguinal lymph nodes; assay: Delivery of Cre mRNA to LNs in Ai14 reporter mice (tdTomato positive cells, flow cytometry); format: in vivo; details: LNP/Cre mRNA s.c., 48 h; result in words
OVA = assay: ELISA for antibody titer after OVA mRNA vaccination; format: in vivo; details: 14 days after second dose
HEK293T cells = assay: 5′UTR and 3′UTR optimization in HEK293T cells (eGFP, flow cytometry); format: cell-based; details: LPF2k
Method: 5′UTR optimization in HEK293T cells. Prior to transfection, HEK293T cells were seeded on a 48-well plate at 40,000 cells/well, with 500 μL DMEM culture in each well. 6 groups were set with different treatments: Lipofectamine 2000 (LPF2k) only, pcDNA3.0-eGFP, pcDNA3.0-NCA7d-eGFP, pcDNA-70nt-eGFP, pcDNA3.0-Ces1d-eGFP and pcDNA3.0-S27a45′-eGFP. LPF2k was complexed each plasmid in equal amount (0.5 μg/0.5 μg) before being added to each well. At each time point (36 hrs, 60 hrs, 84 hrs and 108 hrs), cells were washed with PBS and then treated with 500 μL 0.25% Typsine-EDTA 10 (Gibco) for 3 min. Resuspended cells were applied to the Attune NxT Flow Cytometer (Thermo Fisher) directly (FIG. 10).
3′UTR optimization in HEK293T cell. Similar to 5′UTR optimization, thirteen 3′UTRs modified pcDNA3.0-Ces1d-eGFP and pcDNA3.0-70nt-eGFP were encapsulated in LPF2k at a 1:1 weight ratio and then transfected into HEK293T cells. At each time point (48 hrs, 72 hrs, 96 hrs and 120 hrs), cells were washed with PBS and then treated with 500 μL 0.25% Typsine-EDTA (Gibco) for 3 min. Resuspended cell were applied to the Attune NxT Flow Cytometer (Thermo Fisher) directly (FIG. 11).

liver [3] = assay: Mouse liver-directed 3′UTR and cap screening in mRNA format (L88 LNP, IVIS); format: in vivo, BALB/c mice; details: Lipid 88 delivery, 0.2 mg/kg IV
Method: Mouse liver-directed 3′UTR screening in mRNA format. 6-week-old female BALB/c mice were used for in vivo modified Fluc-eGFP mRNA screening with L88 LNP delivery. Each UTRs modified Fluc-eGFP mRNA were encapsulated in an optimal Lipid 88 formulation (L88:Chol:DOPC:DMG-PEG=16:4:2:1, w w) at the weight ratio of 1:10 in PBS solution (RNase-free). The L88/Fluc-eGFP mRNA complex was intravenously injected into the mice at a mRNA dose of 0.2 mg/kg. At each preset time point, mice were injected with 100 μL of D-Luciferin potassium salt (GoldBio) solution (15 mg/mL in PBS), anesthetized under isoflurane anesthesia, and evaluated using IVIS imaging system (Caliper Life Sciences, US).

[4] = system: IFN γ and IL-4 positive T cells; assay: IFN γ and IL-4 ELISpot after S protein mRNA vaccination; format: in vivo, mice; details: spleen day 28
Method: The blood and spleen were collected at day 28 for further analysis.
The T cell response after the vaccination was analyzed by IFN γ and IL-4 ELISpot (FIGS. 5A-C).
The T cell response after vaccination was tested by ELISpot assay.

CCCCCCCCC(CCCCCC)C(=O)OCCCCCCN(CCCCO)CCCCCCOC(=O)C(CCCCCC)CCCCCCCC (stereo not shown) [ALC-0315]
Luc mRNA expression in inguinal (draining) lymph nodes (inguinal lymph nodes): obvious signal in draining LNs | Luc mRNA expression in liver (liver [1]): significantly increased expression of Luc in liver; also recorded: significantly higher expression in liver | transfection of cells in inguinal lymph nodes [2]: less efficacy compared with 113-F2 LNP; also recorded: successfully delivered Cre mRNA to antigen-presenting cells (APC) | antibody response (total IgG, IgG1, IgG2c) (OVA): peak antibody level

Apolipoprotein A-II
eGFP expression, 3′UTR in pcDNA3.0-70nt-eGFP (HEK293T cells; 48-120 hrs): top-performing 3′UTR candidates | ARCA capped 70nt-Fluc-eGFP mRNA Fluc expression in the liver (liver [3]): highest Fluc expression in the liver relative to other eight 3′UTR modifications

Pam3CSK4
Luc mRNA expression in inguinal (draining) lymph nodes (inguinal lymph nodes): decreased the mRNA expression in draining lymph nodes | transfection of cells in inguinal lymph nodes [2]: decreased the transfection efficacy | IL-4 positive T cells (ELISpot) [4]: increased the Th1 T cell response and percentage of IL-4 secreting T cells; also recorded: significantly induced IL-4 secreting T cells compared with all other groups

B1: Ces1d: 5′UTR fragment, sequence in Table 1 (nucleic acid)
DNA: CCACTAGTTCTAGAGGTACCTTGGACCCTCGTACAGAAGCTAATACGACTCACTATAAGGAGGCGGGTCCCCTGGTCCACAACAGAAGCATTGCTAAAGCAGCAGATAGCTCAGAGACCCACAGAGCCCTTGTCCTTCCACAGAATTCGCCACCATGGAAGA
eGFP expression, 5′UTR in pcDNA3.0-eGFP (HEK293T cells; 36-108 hrs): top-performing 5′UTR candidates
